Marks after values point to notes of the source that are not given here. Values belong to the molecule of their own block, whether it stands above or below them.
Experiments:
Type in all cases: cell-based
S. pyogenes A CCUG 4208 = experiment: MIC on blood agar plates against S. pyogenes A CCUG 4208; set-up: key: +++: Same growth as on the control plate without any chlorhexidine and/or pentane-1,5-diol; ++: Reduced growth compared to the control; +: Very poor growth; −: No growth
Description: The minimal inhibitory concentration (MIC) of pentane-1,5-diol combined with chlorhexidine against S. pyogenes A CCUG 4208 was determined using bacteria concentrations of 6×10^7 (20 μl applicated onto blood agar plates). The results are depicted below in table 7 and 8.

C. albicans (CCUG 5594) = experiment: MIC by agar dilution assay, C. albicans
Description: (§1) Chlorhexidine digluconate (CHG) solution, 20% water, […]-25ML, (Sigma, St. Louis, USA) and PD, (BASF AG, Ludwigshafen, Germany) were used in the study and the following reference strains were tested; C. albicans (CCUG 5594), S. aureus (CCUG 17621) and P. acnes (CCUG 1794). Minimum inhibitory concentration of CHG and pentane-1,5-diol (PD) were determined by agar dilution assay. A series of dilutions of each compound were prepared in blood agar medium for P. acnes, and in Diagnostic Sensitivity Test (DST) agar (Oxoid, Basingstoke, UK) for C. albicans and S. aureus. Dilution series with each agent were made with freshly prepared agar at 48-50° C. Final concentration ranges were as follows: CHG solution, 0.00001 to 1% (w/v) and PD, 1-30% (v/v). The prepared plates were solidified and used immediately. For each organism an inoculum was prepared by growing organisms on blood agar. Colonies were suspended in phosphate-buffered saline (PBS) and suspensions were adjusted to approximately 6×10^6 CFU/ml for C. albicans and P. acnes and 6×10^5 CFU/mL for S. aureus. The plates were inoculated with 20 μl spots and incubated for one day for C. albicans and S. aureus and three days for P. acnes. MICs were then determined as the lowest concentration of the compound inhibiting growth of the isolates. First the MICs of CHG and PD, respectively, were determined for each micro-organism. Then, a range of combined CHG and PD concentrations were tested on each micro-organism to determine if there was synergistic activity. The definition of synergistic effect is: “An effect that is greater than the sum of the effects of the two drugs, such as the equation: 1+1 . . . ”. Each isolate was tested twice.

P. acnes = experiment: MIC on blood agar plates against P. acnes; set-up: key: +++: Same growth as on the control plate without any chlorhexidine and/or pentane-1,5-diol; ++: Reduced growth compared to the control; +: Very poor growth; −: No growth
Description: The minimal inhibitory concentration (MIC) of pentane-1,5-diol and chlorhexidine against P. acnes was determined using bacteria concentrations of 6×10^6 (20 μl applicated onto blood agar plates). The results are depicted below in table 4 and 5.
The minimal inhibitory concentration (MIC) of pentane-1,5-diol combined with chlorhexidine against P. acnes was determined using bacteria concentrations of 6×10^6 (20 μl applicated onto blood agar plates).

S. aureus = experiment: MIC on DST-agar plates against S. aureus; set-up: key: +++: Same growth as on the control plate without any chlorhexidine and/or pentane-1,5-diol; ++: Reduced growth compared to the control; +: Very poor growth; −: No growth
Description: The minimal inhibitory concentration (MIC) of pentane-1,5-diol and chlorhexidine against S. aureus was determined using bacteria concentrations of 6×10^6 (20 μl applicated onto DST-agar plates). The results are depicted below in table 1 and 2.
The minimal inhibitory concentration (MIC) of pentane-1,5-diol combined with chlorhexidine against S. aureus was determined using bacteria concentrations of 6×10^6 (20 μl applicated onto DST-agar plates).

S. aureus (CCUG 17621) = experiment: MIC by agar dilution assay, S. aureus
Description: as §1

P. acnes (CCUG 1794) = experiment: MIC by agar dilution assay, P. acnes
Description: as §1

[1] = C. albicans CCUG5594, agar dilution
[2] = growth grade at pentane-1,5-diol 5 wt %
[3] = growth grade at pentane-1,5-diol 6 wt %
[4] = growth grade at pentane-1,5-diol 7 wt %
[5] = growth grade at pentane-1,5-diol 10 wt %
[6] = growth grade at pentane-1,5-diol 20 wt %
[7] = growth grade at pentane-1,5-diol 30 wt %
[8] = S. aureus CCUG17621, agar dilution
[9] = P. acnes CCUG1794, agar dilution

MIC combined PD (C. albicans (CCUG 5594); C. albicans CCUG5594, PD in combination with CHG 0.00005 w/v %): 3 v/v %
MIC alone PD (C. albicans (CCUG 5594); [1]): 5 v/v %
MIC combined PD (S. aureus (CCUG 17621); S. aureus CCUG17621, PD in combination with CHG 0.00001 w/v %): 8 v/v %
MIC alone PD (S. aureus (CCUG 17621); [8]): 9 v/v %
MIC combined PD (P. acnes (CCUG 1794); P. acnes CCUG1794, PD in combination with CHG 0.00005 w/v %): 3 v/v %
MIC alone PD (P. acnes (CCUG 1794); [9]): 6 v/v %
SMILES: OCCCCCO [Pentane-1,5-diol, pentane-1,5-diol]
growth grade (S. pyogenes A CCUG 4208; growth grade at 1,5-pentanediol 2 %): +++
growth grade (S. pyogenes A CCUG 4208; growth grade at 1,5-pentanediol 4 %): ++
growth grade (S. pyogenes A CCUG 4208; growth grade at 1,5-pentanediol 6 %): +
growth grade (S. pyogenes A CCUG 4208; growth grade at 1,5-pentanediol 7 %): −
growth grade (S. pyogenes A CCUG 4208; growth grade at 1,5-pentanediol 8 %): −
growth grade (S. pyogenes A CCUG 4208; growth grade at 1,5-pentanediol 9 %): −
growth grade (S. pyogenes A CCUG 4208; growth grade at 1,5-pentanediol 10 %): −
growth grade (S. pyogenes A CCUG 4208; growth grade at 1,5-pentanediol 15 %): −
Ratio (alone/combined) PD/PD + CHG (C. albicans (CCUG 5594); C. albicans CCUG5594, reduction of the MIC of PD): 2
growth grade (P. acnes; growth grade at pentane-1,5-diol 1 wt %): +++
growth grade (P. acnes; growth grade at pentane-1,5-diol 3 wt %): ++
growth grade (P. acnes; [2]): +
growth grade (P. acnes; [3]): −
growth grade (P. acnes; [4]): −
growth grade (P. acnes; [5]): −
growth grade (P. acnes; [6]): −
growth grade (P. acnes; [7]): −
bacterial growth grade (S. aureus; [2]): +++^a
bacterial growth grade (S. aureus; [3]): ++
bacterial growth grade (S. aureus; [4]): ++
bacterial growth grade (S. aureus; growth grade at pentane-1,5-diol 8 wt %): +
bacterial growth grade (S. aureus; growth grade at pentane-1,5-diol 9 wt %): −
bacterial growth grade (S. aureus; [5]): −
bacterial growth grade (S. aureus; [6]): −
bacterial growth grade (S. aureus; [7]): −
Ratio (alone/combined) PD/PD + CHG (S. aureus (CCUG 17621); S. aureus CCUG17621, reduction of the MIC of PD): 1
Ratio (alone/combined) PD/PD + CHG (P. acnes (CCUG 1794); P. acnes CCUG1794, reduction of the MIC of PD): 2

factor by which MIC of CHG was lower than PD (C. albicans (CCUG 5594); C. albicans): 1×10^−4
MIC combined CHG (C. albicans (CCUG 5594); C. albicans CCUG5594, CHG in combination with PD 3 v/v %): 0.00005 w/v %
MIC alone CHG (C. albicans (CCUG 5594); [1]): 0.0005 w/v %
factor by which MIC of CHG was lower than PD (S. aureus (CCUG 17621); S. aureus): 6×10^−5
MIC combined CHG (S. aureus (CCUG 17621); S. aureus CCUG17621, CHG in combination with PD 8 v/v %): 0.00001 w/v %
MIC alone CHG (S. aureus (CCUG 17621); [8]): 0.0001 w/v %
factor by which MIC of CHG was lower than PD (P. acnes (CCUG 1794); P. acnes): 9×10^−5
MIC combined CHG (P. acnes (CCUG 1794); P. acnes CCUG1794, CHG in combination with PD 3 v/v %): 0.00005 w/v %
MIC alone CHG (P. acnes (CCUG 1794); [9]): 0.0001 w/v %
SMILES: [H]/N=C(\N/C(=N/[H])NCCCCCCNC(=N)NC(=N)Nc1ccc(Cl)cc1)Nc1ccc(Cl)cc1 [Chlorhexidine, chlorhexidine digluconate]
growth grade (S. pyogenes A CCUG 4208; growth grade at chlorhexidine digluconate 0.00001 %): +++
growth grade (S. pyogenes A CCUG 4208; growth grade at chlorhexidine digluconate 0.00005 %): +++
growth grade (S. pyogenes A CCUG 4208; growth grade at chlorhexidine digluconate 0.0001 %): +
growth grade (S. pyogenes A CCUG 4208; growth grade at chlorhexidine digluconate 0.0005 %): −
growth grade (S. pyogenes A CCUG 4208; growth grade at chlorhexidine digluconate 0.001 %): −
growth grade (S. pyogenes A CCUG 4208; growth grade at chlorhexidine digluconate 0.005 %): −
growth grade (S. pyogenes A CCUG 4208; growth grade at chlorhexidine digluconate 0.01 %): −
growth grade (S. pyogenes A CCUG 4208; growth grade at chlorhexidine digluconate 0.05 %): −
growth grade (S. pyogenes A CCUG 4208; growth grade at chlorhexidine digluconate 0.1 %): −
growth grade (S. pyogenes A CCUG 4208; growth grade at chlorhexidine digluconate 0.5 %): −
Ratio (alone/combined) CHG/CHG + PD (C. albicans (CCUG 5594); C. albicans CCUG5594, reduction of the MIC of CHG): 10
growth grade (P. acnes; growth grade at chlorhexidine 0.00001 wt %): +++
growth grade (P. acnes; growth grade at chlorhexidine 0.00005 wt %): ++
growth grade (P. acnes; growth grade at chlorhexidine 0.0001 wt %): −
growth grade (P. acnes; growth grade at chlorhexidine 0.0005 wt %): −
growth grade (P. acnes; growth grade at chlorhexidine 0.001 wt %): −
growth grade (P. acnes; growth grade at chlorhexidine 0.005 wt %): −
growth grade (P. acnes; growth grade at chlorhexidine 0.01 wt %): −
growth grade (P. acnes; growth grade at chlorhexidine 0.02 wt %): −
growth grade (P. acnes; growth grade at chlorhexidine 0.05 wt %): −
growth grade (P. acnes; growth grade at chlorhexidine 0.1 wt %): −
growth grade (P. acnes; growth grade at chlorhexidine 0.5 wt %): −
growth grade (P. acnes; growth grade at chlorhexidine 1 wt %): −
bacterial growth grade (S. aureus; S. aureus, growth grade at chlorhexidine 0.00001 wt %): +++
bacterial growth grade (S. aureus; S. aureus, growth grade at chlorhexidine 0.00005 wt %): ++
bacterial growth grade (S. aureus; S. aureus, growth grade at chlorhexidine 0.0001 wt %): −
bacterial growth grade (S. aureus; S. aureus, growth grade at chlorhexidine 0.0005 wt %): −
bacterial growth grade (S. aureus; S. aureus, growth grade at chlorhexidine 0.001 wt %): −
bacterial growth grade (S. aureus; S. aureus, growth grade at chlorhexidine 0.005 wt %): −
bacterial growth grade (S. aureus; S. aureus, growth grade at chlorhexidine 0.01 wt %): −
bacterial growth grade (S. aureus; S. aureus, growth grade at chlorhexidine 0.02 wt %): −
bacterial growth grade (S. aureus; S. aureus, growth grade at chlorhexidine 0.05 wt %): −
bacterial growth grade (S. aureus; S. aureus, growth grade at chlorhexidine 0.1 wt %): −
bacterial growth grade (S. aureus; S. aureus, growth grade at chlorhexidine 0.5 wt %): −
bacterial growth grade (S. aureus; S. aureus, growth grade at chlorhexidine 1 wt %): −
Ratio (alone/combined) CHG/CHG + PD (S. aureus (CCUG 17621); S. aureus CCUG17621, reduction of the MIC of CHG): 10
Ratio (alone/combined) CHG/CHG + PD (P. acnes (CCUG 1794); P. acnes CCUG1794, reduction of the MIC of CHG): 2

Source: US20120004314A1, “ANTIMICROBIAL COMPOSITION” (AMBRIA DERMATOLOGY AB, priority 2008, published 2012)
